SMILES strings stand for the structures.

Here are results for 1 molecule from US20240424132A1, “ATHEROSCLEROSIS-TARGETED LIPOSOME NANOCARRIER DELIVERY SYSTEM AND PREPARATION METHOD THEREFOR” (Beijing Inno Medicine Co., Ltd., priority 2021, published 2024).

The test has as its system arterial plaques. Kind of test: In vivo therapeutic effect on arterial plaques (carotid MRI, percentage of plaque volume progression). On the set-up: species or system ApoE−/− mice. The note with it: 0.66 mg rosuvastatin per kg, once every other day, 4 weeks. The protocol:
(1) A normal saline solution of free rosuvastatin was prepared, and a nanodelivery system loaded with the therapeutic agent was prepared by the method described in the above Example 2. SPF-grade ApoE−/− mice (42 mice, 5-6 weeks old, weight 20±1 g) were taken as assay animals. The mice were fed an adaptive high-fat diet (fat 10% (w/w), cholesterol 2% (w/w), sodium cholate 0.5% (w/w), and the rest being normal feed for mice) for 4 weeks, and then anaesthetized via intraperitoneal injection of 1% sodium pentobarbital (prepared by adding […] of sodium pentobarbital to 100 ml of normal saline) at a dose of 40 mg/kg. Then, the mice were fixed on the surgical plate in the supine position, and disinfected around the neck with 75% (v/v) alcohol. The neck skin was cut longitudinally, and the anterior cervical gland was bluntly separated, and the beating left common carotid artery can be observed on the left side of the trachea. The common carotid artery was carefully separated to the bifurcation. A silicone cannula with a length of 2.5 mm and an inner size of 0.3 mm was placed on the outer periphery of the left common carotid artery. […] For animals in each group, carotid MRI scans were performed before and after treatment weekly to detect plaque and lumen area, and the percentage of plaque volume progression was calculated based on the scanned thickness. […]

As to `CC(C)c1nc(N(C)S(C)(=O)=O)nc(-c2ccc(F)cc2)c1/C=C/[C@@H](O)C[C@@H](O)CC(=O)O` [free rosuvastatin, rosuvastatin], the “therapeutic effect on plaques, intravenous administration” value (intravenous) was “cannot exhibit the therapeutic effect of reversing plaques”. Moreover, where the note is “oral”, the “therapeutic effect on plaques, oral administration” value was “cannot exhibit the therapeutic effect of reversing plaques”.
